According to patent publication US20080221115A1, “Use of long-chain alcohol derivatives for the treatment of alopecia areata” (priority 2007, published 2008):

Legend:
[1] = test system: delayed-type hypersensitivity model in mice; details: disclosed in WO 2004/032824; cited from earlier work
[2] = test system: alopecia greata in C3H/HeJ mice; details: for effective in treating the alopecia greata in C3H/HeJ mice: conclusion in words from Example 1; for Average score: hair amount and hair growth in biopsies from mustache, face, head, neck, back, stomach graded 1 (no hair) to 5 (full growth), averaged per group, day 93, negative control (PBS) 2.48; for Average score / Overall score: 25 mg/ml in PBS, topical; for Overall score: overall appearance graded on a scale of 1 (50% of mouse hairless) to 5 (full hair), group mean, 40 μl per cm^2 lesion, day 93 from the beginning of the treatment, negative control (PBS) 2.7
Procedure: The young mice will develop the disease subsequent to grafting.
Lesional grafts from old C3H/HeJ mice were grafted onto young C3H/HeJ mice. On day 30-40 post-graft the mice were randomized into groups with approximately the same degree of alopecia greata pathology.
Group 1: negative control, phosphate buffered saline (PBS).
Treatment was initiated on the day of randomization into groups. Mice were treated by providing 40 μl of solution per cm^2 lesion. The solution was evenly spread and was allowed to soak into the skin. Mice were observed twice weekly and the size of patches was measured and documented.
Treatment solutions were prepared freshly each day.
At the end of the study, skin biopsies were evaluated in a blinded manner. The hair amount and hair growth from biopsies from mice mustache, face, head, neck, back, and stomach were graded from 1 to 5. A rating of 1 represented no hair, and a rating of 5 represented full growth. These scores were calculated for each mouse and averaged, and the average for each group is shown below as “average score.”
In addition, the mice were graded based on their overall appearance on a scale of 1 to 5 for “overall score.”
Score 1=50% of mouse hairless.
Score 2=20-40% of mouse hairless.
Score 3=hairless patch covering up to 20% of mouse.
Score 4=thin hair, or local small hairless patch.
There were 7 mice in each of the test compound groups and 5 mice in the negative control group.
The scoring occurred on day 93 from the beginning of the treatment.

EAE model in rats = details: disclosed in WO 2004/032824; cited from earlier work

CCCCCCCC/C=C\CCCCCCCCOC(=O)C(N)c1ccccc1.Cl (stereo not drawn) [compound 1, amino-phenyl-acetic acid octadec-(Z)-9-enyl ester HCl]
results in a delayed-type hypersensitivity model in mice [1]: positive results
effective in treating the alopecia greata in C3H/HeJ mice [2]: effective
Average score [2]: 3.11
Overall score [2]: 3.5

CCCCCCCC/C=C\CCCCCCCCOC(=O)CN1CCNCC1.O=C(O)C(O)C(O)C(=O)O [compound 2]
results in a delayed-type hypersensitivity model in mice [1]: positive results
effective in treating the alopecia greata in C3H/HeJ mice [2]: effective
Average score [2]: 2.91
Overall score [2]: 3.5
results in an EAE model in rats (EAE model in rats): positive results
